Data as given in patent US6984520B1, “Bioassay for thyroid stimulating antibodies” (University of Wales College of Medicine, priority 1997, dated 2006).

Columns and labels:
human TSH-R [1] = target: T1, human TSH-R (Homo sapiens, UniProt P16473); test: luminescent bioassay: light output of lulu 1 cells (JP09 CHO cells expressing human TSH-R, transfected with cAMP-luciferase); format: cell-based; settings: concentration as in row: TSH 1 mU/ml, TSAb (90/672) 10 mlU/ml, Forskolin 10^-5M
T1 construct: a pSVL vector containing the coding region of human TSH-R; expressed in transfected cells; host or cells: CHO-K1 clone JP09 (pSVL-hTSHR), further transfected with cAMP-luciferase to give lulu 1 cells
Procedure: Culture medium for the cells was RPMI; 10% foetal calf serum (FCS); 1% glutamine; 1% pyruvate; 2% penicillin/streptomycin (and 2.5 μg/ml puromycin, when amplifying cells for assay). 96 well plates were seeded with 5×10^4 cells prepared according to Example 1 and cultured overnight (approximately 16 hours) at 37° C. in a water-saturated incubator. They were then cultured for a second night in medium containing 10% charcoal stripped calf serum instead of FCS (available from Gibco). Basal light output was measured, in triplicate wells, in the presence of 100 μl of the medium containing 10% charcoal stripped serum. […] The final result was expressed as relative light units (RLU) obtained by the ratio of standard:basal or test:basal.
Following the incubation period, supernatants were removed from the wells and the cells are washed twice in phosphate buffered saline. Light output was measured using a commercially-available kit from the Promega Corporation, no. […]
The selected clones were cultured overnight in medium with 10% charcoal-stripped calf serum (Sigma) in place of FCS, followed by 4 hours' incubation with varying concentrations of bovine TSH. Light output was measured by luciferase reporter assay (Promega) in a Berthold luminometer. Results were calculated as the ratio of light output in the presence of TSH:light output in the absence of TSH and expressed as relative light units (RLUs). […]

human TSH-R [2] = target: T1, human TSH-R; test: traditional bioassay: cAMP released into culture medium of lulu 1 cells, measured by RIA; format: cell-based; settings: NaCl-free Hank's medium, 2 mM IBMX, TSH 1 mU/ml, TSAb (90/672) 10 mlU/ml
Procedure: 44 of the GD sera described above, (35 TBII (TSH-R) positive) and the TSAb standard, were also assayed in a traditional bioassay in which CAMP released into the culture medium was measured by RIA. Lulu 1 were seeded in 96 well plates and the assay was performed in 100 μl/well NaCl-free Hank's medium, containing 2 mM IBMX and 10 μl individual GD or pooled euthyroid serum. CAMP was measured by the CAMP [^3H] assay system (Amersham) as described by Ludgate et al in Exp Clin Endo 100 73–4.

T1 sequence (P16473 21-764): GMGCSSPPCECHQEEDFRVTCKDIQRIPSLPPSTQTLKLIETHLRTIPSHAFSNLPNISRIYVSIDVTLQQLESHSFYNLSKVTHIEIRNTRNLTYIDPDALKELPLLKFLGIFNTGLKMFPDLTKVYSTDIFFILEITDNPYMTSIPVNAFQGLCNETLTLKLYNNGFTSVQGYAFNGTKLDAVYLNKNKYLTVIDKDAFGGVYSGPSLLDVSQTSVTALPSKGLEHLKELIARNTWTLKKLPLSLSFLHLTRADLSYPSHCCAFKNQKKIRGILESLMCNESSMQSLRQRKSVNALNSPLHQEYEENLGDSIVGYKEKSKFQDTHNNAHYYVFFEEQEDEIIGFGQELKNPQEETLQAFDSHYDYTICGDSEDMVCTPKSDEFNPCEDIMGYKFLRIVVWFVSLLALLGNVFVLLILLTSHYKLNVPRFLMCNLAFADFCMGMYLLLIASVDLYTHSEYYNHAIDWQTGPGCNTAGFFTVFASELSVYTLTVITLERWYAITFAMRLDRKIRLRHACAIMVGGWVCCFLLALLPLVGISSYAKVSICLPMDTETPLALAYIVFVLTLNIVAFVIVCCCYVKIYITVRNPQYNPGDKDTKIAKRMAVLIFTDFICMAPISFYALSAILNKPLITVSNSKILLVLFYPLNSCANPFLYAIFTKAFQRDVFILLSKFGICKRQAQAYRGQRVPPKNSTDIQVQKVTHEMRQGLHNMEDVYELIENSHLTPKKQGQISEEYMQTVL

- RLUs (mean luminometer readings (n=3) with background light emission subtracted) (human TSH-R [1]): 1293 RLUs
- pmole cAMP (mean, n=2) (human TSH-R [2]): 9.4 pmol
Substance: thyrotropin [TSH]
